From patent US11603343B2, “Inhibition of DYRK1A kinase” (Ankh Life Sciences Limited, priority 2020, dated 2023)

Biological target: T1, human DYRK1A (Homo sapiens, UniProt Q13627)
T1 construct: host or cells: E. coli BL21(DE3)
Assay: ELISA DYRK1A non-radioactive phosphorylation assay (HT-PRD substrate)
Type: biochemical
Protocol: In order to determine the effectiveness of the DYRK1A inhibitors of the invention, a series of ELISA assays were performed, along with Western Blot assays.
The ELISA assays were devised as a modified form of the assay described in Liu et al. “An ELISA DYRK1A non-radioactive assay suitable for the characterization of inhibitors,” F1000Research 2017, 6:42 (doi: 10.12688/f1000research.10582.1), incorporated by reference herein in its entirety.
Specifically, human DYRK1A (Addgene #38913) and HT-PRD (Addgene #87755) plasmids were obtained from Addgene and were expressed and purified using Ni affinity chromatography, as explained below. Proteins were quantified by the conventional Bradford method and stored at −80° C. until used.
HT-PRD was diluted in dilution buffer (25 mM Tris-HCl, pH 7.4 and 100 mM NaCl) to 4 ng/μL and used to coat a 96-well plate (BD Falcon #353072) with 100 μL per well at 4° C. overnight.
The wells were next washed with dilution buffer 3 times to remove unbound materials, and then the wells were blocked with 150 μL blocking buffer (2% BSA, 1×PBS, and 0.25% Tween 20) at room temperature for 60 minutes with shaking on a shaker.
After the 60-minute shaking period, the wells were washed thoroughly with dilution buffer 3 times to prepare for the phosphorylation in the next step.
Duplicate DYRK1A phosphorylation reactions were performed in the wells with 100 μL reaction mixtures each containing 25 mM HEPES, pH 7.4, 100 mM NaCl, 5 mM MgCl2, 100 μM ATP, 1% DMSO, and 200 ng/mL DYRK1A. Separate reaction mixtures included a no-inhibitor DMSO control, harmine inhibitor, and different concentrations of the inhibitors of the present invention. The plate was left on a temperature-controlled shaker for 30 minutes at 30° C.
The phosphorylation reactions were terminated after the 30-minute shaking, by the addition of 20 mM EDTA. The wells were then washed with PBST (0.02% Tween 20).
HT-PRD phosphorylation was determined by the sandwich antibody staining protocol. […] The extent of the phosphorylation reactions was monitored at λ=405 nm. […]

[1] = tested at 5 μg/mL, significantly greater than DMSO and any of the other fractions at the same level of use (FIG. 1)

Question: Which “inhibition of DYRK1A” value [1] does the source give for `Cc1c(O)cc(C(C)C)c(O)c1Cc1cc(O)c(C(C)C)cc1O` [compound XVIII] here?
Answer: The value was “very pronounced inhibition of DYRK1A”.

Question: How did the “inhibition of DYRK1A” value [1] turn out when `Cc1c(O)cc(C(C)C)c(O)c1CC1=CC(=O)C(C(C)C)=CC1=O` [compound XVII] was run?
Answer: The value was “very pronounced inhibition of DYRK1A”.

Question: For `COc1ccc2c3c([nH]c2c1)C(C)=NCC3` [harmaline, reference compound], which “inhibition of DYRK1A” value (reference inhibitor, text says 100 μg/mL, sample table lists harmine 2 μM and 10 μM (FIG. 1)) is on record?
Answer: Its value is “showed inhibition of DYRK1A”.
